Measured values taken from patent US20250268894A1, “MACROCYCLE COMPOUNDS FOR THE TREATMENT OF CANCER” (Hoffmann-La Roche Inc., priority 2022, published 2025).
pIC50: −log10 of the molar value.

How the values were obtained:
human hepatocytes = experiment: Human hepatocyte stability assay; format: in vitro ADME; details: 1 μM compound, human hepatocyte suspension 1×10^6 cells/mL
Experimental: The hepatocyte stability assay measures the rate of disappearance of a compound from incubations with cryopreserved suspension hepatocytes from human. Positive controls, including Midazolam, Raloxifene and Dextromethorphan, are included in every experiment. Incubations consist of 1 μM tested compound and suspension of human hepatocytes (1×10^6 cells/mL) in supplemented Williams' E Medium with 10% FBS and 0.5% Penicillin-streptomycin. The hepatocyte suspension was incubated with intermittent shaking 900 rpm at 37° C., in a 5% CO2 incubator. The reaction was stopped by adding methanol containing internal standard (2 μM Tolbutamide) at 2, 10, 20, 40, 60 and 120 minutes after compound addition, depletion of the parent compound was monitored by LC-MS/MS analysis.

KRAS G12D-BRAF complex = KRAS G12D-BRAF complex (Homo sapiens (Human), UniProt P01116+P62937, G12D); experiment: KRAS-BRAF with CYPA (500 nM) interaction assay (TR-FRET), G12D; format: biochemical
How it was run: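 TR-FRET read of compound- or compound-CYPA-driven disruption of BRAF binding by KRAS G12C, G12D or G12V, with CYPA at 500 nM. Compounds tested as 16-point 3-fold dilutions from 10 μM final, incubated 3 hours. Ex320/Em 665/615 nm ratio drop relative to DMSO wells marks disruption.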

[1] = test system: phosphorylation of ERK, KRAS G12D in AGS cells; experiment: pERK inhibition assay, KRAS G12D in AGS cells; format: cell-based, human; details: Homo sapiens, 4 hours
How it was run: (§1)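 NCI-H358 (G12C), AGS (G12D) and SW620 (G12V) cells in RPMI-1640/10% FBS, plated overnight, then treated 4 h with compound (0.5% DMSO final). Fixed, methanol-permeabilized; phospho-ERK detected by in-cell ELISA (anti-pERK, HRP secondary, TMB, OD450). IC50 from 4-parameter sigmoidal fit.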

[2] = test system: phosphorylation of ERK, KRAS G12V in SW620 cells; experiment: pERK inhibition assay, KRAS G12V in SW620; format: cell-based, human; details: Homo sapiens, SW-620, SW620, 4 hours
How it was run: as §1

[3] = test system: Miapaca-2 KRAS G12C + V8A cells; experiment: Stable KRAS mutant cell line viability assay (CellTiter-Glo), G12C + V8A; format: cell-based; details: Homo sapiens, MIA PaCa-2, 72 h, Miapaca-2 mutant cells, 3 d
Excerpt: (§2) The aim of the study was to determine the potency and efficacy of compounds for cell proliferation using CellTiter-Glo® (CTG) Luminescent Cell Viability Assay (Promega Corp., Madison, WI). We cloned […] KRAS^G12C variant sequences with secondary mutations (V8A, V9Y, S17E, T58I, A59T, S65W, R68S, D69P, M72I, D92R, H95N, Y96D, Q99F, Q99W, Y96H, and F156L) into the Miapaca-2. Totally 14 stable Miapaca-2 mutant cell lines were established through lentivirus infection. For the cell viability assay, cells were dosed with compounds in a 9-point dose-response using a 4 fold dilution series at a top dose of 10 μM. KRAS mutant cells were maintained in DMEM+10% FBS+2.5% HI Horse serum+1% PS+1 μg/mL Puromycin and seeded into 96-well plates at 800-1,500 cells per well 24 h before compound addition and then incubated with compound for 3 d before assaying viability (CellTiter-Glo, Promega). Assays were performed in biological duplicates. Nonlinear regression curves were fitted using Xfit. IC50 (absolute IC50) is the dose at which the estimated viability is 50% relative to untreated wells.

[4] = test system: Miapaca-2 KRAS G12C + V9Y cells; experiment: Stable KRAS mutant cell line viability assay (CellTiter-Glo), G12C + V9Y; format: cell-based; details: Homo sapiens, MIA PaCa-2, 72 h, Miapaca-2 mutant cells, 3 d
Excerpt: as §2

[5] = test system: Miapaca-2 KRAS G12C + S17E cells; experiment: Stable KRAS mutant cell line viability assay (CellTiter-Glo), G12C + S17E; format: cell-based; details: Homo sapiens, MIA PaCa-2, 72 h, Miapaca-2 mutant cells, 3 d
Excerpt: as §2

[6] = test system: Miapaca-2 KRAS G12C + A59T cells; experiment: Stable KRAS mutant cell line viability assay (CellTiter-Glo), G12C + A59T; format: cell-based; details: Homo sapiens, MIA PaCa-2, 72 h, Miapaca-2 mutant cells, 3 d
Excerpt: as §2

[7] = test system: Miapaca-2 KRAS G12C + T58I cells; experiment: Stable KRAS mutant cell line viability assay (CellTiter-Glo), G12C + T58I; format: cell-based; details: Homo sapiens, MIA PaCa-2, 72 h, Miapaca-2 mutant cells, 3 d
Excerpt: as §2

[8] = test system: Miapaca-2 KRAS G12C + S65W cells; experiment: Stable KRAS mutant cell line viability assay (CellTiter-Glo), G12C + S65W; format: cell-based; details: Homo sapiens, MIA PaCa-2, 72 h, Miapaca-2 mutant cells, 3 d
Excerpt: as §2

[9] = test system: Miapaca-2 KRAS G12C + R68S cells; experiment: Stable KRAS mutant cell line viability assay (CellTiter-Glo), G12C + R68S; format: cell-based; details: Homo sapiens, MIA PaCa-2, 72 h, Miapaca-2 mutant cells, 3 d
Excerpt: as §2

[10] = test system: Miapaca-2 KRAS G12C + M72I cells; experiment: Stable KRAS mutant cell line viability assay (CellTiter-Glo), G12C + M72I; format: cell-based; details: Homo sapiens, MIA PaCa-2, 72 h, Miapaca-2 mutant cells, 3 d
Excerpt: as §2

[11] = test system: Miapaca-2 KRAS G12C + Y96D cells; experiment: Stable KRAS mutant cell line viability assay (CellTiter-Glo), G12C + Y96D; format: cell-based; details: Homo sapiens, MIA PaCa-2, 72 h, Miapaca-2 mutant cells, 3 d
Excerpt: as §2

[12] = test system: Miapaca-2 KRAS G12C + Q99W cells; experiment: Stable KRAS mutant cell line viability assay (CellTiter-Glo), G12C + Q99W; format: cell-based; details: Homo sapiens, MIA PaCa-2, 72 h, Miapaca-2 mutant cells, 3 d
Excerpt: as §2

Chain of KRAS G12D-BRAF complex (P01116-2 other isoform, or with tags, fused parts or gaps G12D): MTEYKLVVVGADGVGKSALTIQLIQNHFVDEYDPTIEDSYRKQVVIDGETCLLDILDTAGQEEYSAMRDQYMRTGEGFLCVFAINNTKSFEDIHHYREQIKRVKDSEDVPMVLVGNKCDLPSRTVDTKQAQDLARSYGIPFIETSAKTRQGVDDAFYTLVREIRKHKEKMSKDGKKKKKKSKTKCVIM
Chain of KRAS G12D-BRAF complex (P62937 whole entry): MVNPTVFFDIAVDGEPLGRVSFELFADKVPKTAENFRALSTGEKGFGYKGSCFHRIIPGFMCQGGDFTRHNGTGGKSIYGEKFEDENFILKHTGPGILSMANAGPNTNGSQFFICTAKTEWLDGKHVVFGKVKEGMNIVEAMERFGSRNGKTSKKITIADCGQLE

Q: For `CO[C@@H](C)c1ncc(N2CCN(CC(F)(F)F)CC2)cc1-c1c2c3cc(ccc3n1CC(F)(F)F)-c1csc(n1)C[C@H](NC(=O)[C@H](C(C)C)N(C)C(=O)N1CCOCC1)C(=O)N1CCC[C@H](N1)C(=O)OCC(C)(C)C2` (atropisomer, axis not shown; (M)) [Example 6], which “CL_hep (Human)” value (human hepatocytes) is on record?
A: Its value is less than 2.4 mL/min/kg.

Q: And the pIC50 (KRAS G12D-BRAF complex)?
A: The pIC50 was 7.15.

Q: What about the pIC50 [1] of the same compound?
A: Its pIC50 is 8.52.

Q: And the pIC50 [2]?
A: Its pIC50 is 8.70.

Q: And the pIC50 [3]?
A: The pIC50 was 8.70.

Q: And the pIC50 [4]?
A: The pIC50 was 8.70.

Q: And the pIC50 [5]?
A: Its pIC50 is 8.30.

Q: What about the pIC50 [6] of the same compound?
A: The pIC50 was 7.96.

Q: What about the pIC50 [7] of the same compound?
A: The pIC50 was 8.15.

Q: What about the pIC50 [8] of the same compound?
A: The pIC50 was 8.22.

Q: And the pIC50 [9]?
A: The pIC50 was 7.47.

Q: And the pIC50 [10]?
A: Its pIC50 is 8.52.

Q: And the pIC50 [11]?
A: The pIC50 was 8.15.

Q: What about the pIC50 [12] of the same compound?
A: Its pIC50 is 8.15.
